# How the values were obtained:
# [1] = target: T1, Leukotriene A-4 hydrolase (Homo sapiens) (UniProt P09960); experiment: (§1) Activation of N-terminal (His)6 and Xpress-tagged LTA4H (unknown origin) expressed in Escherichia coli BL21(DE3) cells assessed as increase in aminopeptidase activity by measuring factor by which activator affects catalytic constant for hyperbolic mixed predominantly catalytic activation using L-Alanine-p-nitroanilide incubated for 10 mins by p-nitroanilide release detection based UV plate reader based assay
# T1 sequence (whole entry): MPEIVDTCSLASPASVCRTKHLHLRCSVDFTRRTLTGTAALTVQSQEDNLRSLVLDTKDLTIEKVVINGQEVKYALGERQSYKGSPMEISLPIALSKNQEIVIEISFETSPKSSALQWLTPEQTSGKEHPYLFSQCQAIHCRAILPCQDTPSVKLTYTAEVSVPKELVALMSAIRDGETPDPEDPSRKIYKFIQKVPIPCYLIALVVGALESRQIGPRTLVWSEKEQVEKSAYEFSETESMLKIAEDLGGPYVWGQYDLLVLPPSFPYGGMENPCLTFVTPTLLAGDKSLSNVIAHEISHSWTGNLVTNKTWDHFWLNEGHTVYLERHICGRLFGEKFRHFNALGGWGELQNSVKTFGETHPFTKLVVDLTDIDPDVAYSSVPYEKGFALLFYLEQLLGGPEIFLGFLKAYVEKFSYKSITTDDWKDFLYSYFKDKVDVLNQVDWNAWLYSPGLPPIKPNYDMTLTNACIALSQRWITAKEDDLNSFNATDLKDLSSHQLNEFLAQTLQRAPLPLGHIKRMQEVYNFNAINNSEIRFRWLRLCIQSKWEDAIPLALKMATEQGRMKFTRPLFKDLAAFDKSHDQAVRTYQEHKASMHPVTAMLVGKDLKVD
# [2] = target: T2, Leukotriene A-4 hydrolase (Homo sapiens, UniProt P09960); experiment: Activation of N-terminal (His)6 and Xpress-tagged LTA4H (unknown origin) expressed in Escherichia coli BL21(DE3) cells assessed as increase in aminopeptidase activity by measuring p-nitroanilide release using L-Alanine-p-nitroanilide incubated for 10 mins by UV plate reader based assay
# T2 sequence (P09960 whole entry): T1 sequence (whole entry)
# [3] = target: T1, Leukotriene A-4 hydrolase (Homo sapiens); experiment: as §1, with “dissociation” for “factor by which activator affects catalytic”, “constant (KX)” for “constant”
# [4] = target: T1, Leukotriene A-4 hydrolase (Homo sapiens); experiment: as §1, with “reciprocal allosteric coupling” for “factor by which activator affects catalytic”
# [5] = target: T2, Leukotriene A-4 hydrolase; experiment: Inhibition of N-terminal (His)6 and Xpress-tagged LTA4H (unknown origin) expressed in Escherichia coli BL21(DE3) cells assessed as reduction in aminopeptidase activity by measuring p-nitroanilide release using L-Alanine-p-nitroanilide incubated for 10 mins by UV plate reader based assay
Compound,fold change (FC) [1],AC50 [2] [nM],K [3] [µM],K [4],IC50 [5] [nM]
Nc1nc(-c2ccc(Cc3ccc(C(F)(F)F)cc3)cc2)cs1,21.4,1390,9.6,9.51,–
COc1ccccc1Cc1ccc(-c2csc(N)n2)cc1,–,–,–,–,100

# Source: ChEMBL document CHEMBL4414660, “Effect of Modifier Structure on the Activation of Leukotriene A4 Hydrolase Aminopeptidase Activity” (J Med Chem, 2019)
